{
  "source": "patent US20150368195A1",
  "about": "“INDOLINE COMPOUNDS FOR TREATMENT AND/OR PREVENTION OF INFLAMMATION DISEASES” (Taipei Medical University, priority 2014, published 2015)",
  "key": {"[1]": {"test_system": "CTGF", "experiment": "pro-fibrogenic mediator-induced CTGF production, Western blot", "format": "cell-based, human", "conditions": "WI-38 lung fibroblasts", "procedure": "(§1) Western blot analysis was performed. First, WI-38 lung fibroblasts were incubated with different concentrations of MPT0E028 (0.01, 0.03, 0.1, 0.3, or 1 μM) (FIG. 10A) or MPT0G009 (0.01, 0.03, 0.1, 0.3, or 1 μM) (FIG. 10B) for 30 min before and during incubation for 2 h with TGF-β (10 ng/mL). WI-38 lung fibroblasts were incubated with 1 μM MPT0E028 and MPT0G009 for 30 min and following another incubation for 2 h with 1 U/ml thrombin (FIG. 10C) and 10 nM ET-1 (FIG. 10D). The collagen I production from WI-38 lung fibroblasts stimulated by 10 ng/mL TGF-β for 24 h was inhibited with 1 μM MPT0E028 and MPT0G009 pretreatment (FIG. 10E).\nWI-38 cells, a normal human embryonic lung fibroblast cell line, were obtained from American Type Culture Collection (Manassas, Va.). Cells were grown in MEM nutrient mixture, containing 10% FCS, 2 mM L-glutamine, 0.1 mM NEAA, 1 mM sodium pyruvate, 50 U/ml penicillin G, and 100 μg/ml streptomycin, in a humidified 37° C. incubator with 5% CO2 Cells were used between passages 18 and 30 for all experiments. After reaching confluence, cells were seeded onto 6-cm dishes for immunoblotting.\nWestern blot analyses were performed as described previously (Chen B C, Chang Y S, Kang J C, Hsu M J, Sheu J R, Chen T L, et al. Peptidoglycan induces nuclear factor-kappaB activation and cyclooxygenase-2 expression via Ras, Raf-1, and ERK in RAW 264.7 macrophages. J Biol Chem 2004; 279:20889-97). Briefly, WI-38 lung fibroblasts were cultured in 6-cm dishes. After reaching confluence, cells were pretreated with specific inhibitors (E028 and G009) as indicated for 30 min, and then treated with the vehicle (H2O) or 10 ng/ml TGF-β for 2 h (CTGF assay) or 24 h (collagen I assay). Whole-cell lysates ([…]) were subjected to 12% (CTGF) or 8% (collagen I) SDS-PAGE, and transferred onto a polyvinylidene difluoride membrane which was then incubated in TBST buffer (150 mM NaCl, 20 mM Tris-HCl, and 0.02% Tween 20; pH 7.4) containing 5% BSA. Proteins were visualized by specific primary antibodies and then incubated with HRP-conjugated secondary antibodies. The immunoreactivity was detected using enhanced chemiluminescence (ECL) following the manufacturer's instructions. Quantitative data were obtained using a computing densitometer with scientific imaging systems (Kodak, Rochester, N.Y.).\nTo determine whether the inhibitory effects of MPT0E028 and MPT0G009 on pro-fibrogenic mediators (TGF-β, thrombin, and ET-1) were related to the modulation of CTGF and Collagen I production, Western blot analysis was performed. First, WI-38 lung fibroblasts were incubated with different concentrations of MPT0E028 (0.01, 0.03, 0.1, 0.3, or 1 μM) (FIG. 10A) or MPT0G009 (0.01, 0.03, 0.1, 0.3, or 1 μM) (FIG. 10B) for 30 min before and during incubation for 2 h with TGF-β (10 ng/mL). […] Furthermore, we examined the effects of MPT0E028 and MPT0G009 on other pro-fibrogenic mediators. As shown in FIGS. 10C and 10D, WI-38 lung fibroblasts were incubated with 1 μM MPT0E028 and MPT0G009 for 30 min and following another incubation for 2 h with 1 U/ml thrombin (FIG. 10C) and 10 nM ET-1 (FIG. 10D)."}, "[2]": {"test_system": "collagen I", "experiment": "TGF-β-induced collagen I production, Western blot", "format": "cell-based, human", "conditions": "WI-38 lung fibroblasts; 1 μM pretreatment; TGF-β 10 ng/mL 24 h", "procedure": "as §1\nWI-38 cells, a normal human embryonic lung fibroblast cell line, were obtained from American Type Culture Collection (Manassas, Va.). […]\nWestern blot analyses were performed as described previously (Chen B C, Chang Y S, Kang J C, Hsu M J, Sheu J R, Chen T L, et al. Peptidoglycan induces nuclear factor-kappaB activation and cyclooxygenase-2 expression via Ras, Raf-1, and ERK in RAW 264.7 macrophages. J Biol Chem 2004; 279:20889-97). […] The immunoreactivity was detected using enhanced chemiluminescence (ECL) following the manufacturer's instructions. Quantitative data were obtained using a computing densitometer with scientific imaging systems (Kodak, Rochester, N.Y.). […]"}},
  "data": [
    {"smiles": "O=C(/C=C/c1ccc2c(c1)CCN2S(=O)(=O)c1ccccc1)NO", "note": "[MPT0E028]", "values": [
      {"measurement": "ET-1-induced CTGF expression", "setting": "[1]; 1 μM, 10 nM ET-1 2 h", "value": "inhibited"},
      {"measurement": "thrombin-induced CTGF expression", "setting": "[1]; 1 μM, 1 U/ml thrombin 2 h", "value": "inhibited"},
      {"measurement": "TGF-β-induced CTGF production", "setting": "[1]; 0.01-1 μM, TGF-β 10 ng/mL 2 h", "value": "significantly inhibited"},
      {"measurement": "collagen I production", "setting": "[2]", "value": "inhibited"}
    ]}
  ]
}
